Laboratory results: US11464770B2, “Anticancer pharmaceutical composition” (NATIONAL CANCER CENTER, priority 2016, dated 2022)
pIC50: −log10 of the molar value. Where two headings read alike, the source gives them in different places.

Columns and labels:
[1] = test system: prostate cancer cell lines (e.g. DU145/TXR); assay: Cell based assay, cell viability (CellTiter-Glo), prostate cancer cell lines; settings: Homo sapiens, 72 hours treatment, final concentration 0 to 2 μM
Procedure: (§1) Commercially available bladder cancer, prostate cancer, lung cancer, breast cancer, blood cancer, pancreatic cancer, colorectal cancer, brain cancer, neuroblastoma, melanoma, liver cancer, cervical carcinoma, ovarian cancer, renal cancer, and papilloma cell lines were each treated with trypsin-EDTA and cultured, followed by being seeded in each well of a 96 well plate. After 24 hours of treatment at constant temperature, the respective cells were treated with the candidate compound so that a final concentration became 0 to 2 μM. The treated cells were additionally cultured for 72 hours, and cell viability was measured by using an ATP detection method (CellTiter-Glo® Luminescent Cell Viability Assay, Promega).

liver cancer cell lines = assay: Cell based assay, cell viability (CellTiter-Glo), liver cancer cell lines; settings: Homo sapiens, SK-HEP1; SK-HEP-1 cell line
Procedure: as §1

[2] = test system: cervical carcinoma cell lines; assay: Cell based assay, cell viability (CellTiter-Glo), cervical carcinoma cell lines; settings: Homo sapiens; HeLa cells
Procedure: as §1, with “After 24 hours of treatment at constant temperature, the respective cells were treated with the candidate compound so that a final concentration became 0 to 2 μM.” left out

[3] = test system: RT4: human urinary bladder transitional cell papilloma; assay: Cell based assay, cytotoxicity in RT4 papilloma cells (selectivity); settings: Homo sapiens, RT-4; RT4 cells
Procedure: as §1, with “After 24 hours of treatment at constant temperature, the respective cells were treated with the candidate compound so that a final concentration became 0 to 2 μM.” left out

brain cancer cell lines = assay: Cell based assay, cell viability (CellTiter-Glo), brain cancer cell lines; settings: Homo sapiens
Procedure: as §1, with “After 24 hours of treatment at constant temperature, the respective cells were treated with the candidate compound so that a final concentration became 0 to 2 μM.” left out

[4] = CWR22 cells, read-out: IC50, prostate cancer cell line CWR22
[5] = DU-145, DU145/TXR cells, read-out: IC50, prostate cancer cell line DU145/TXR
[6] = DU-145, DU145 cells, read-out: IC50, prostate cancer cell line DU145
[7] = LNcap cells, read-out: IC50, prostate cancer cell line LNcap
[8] = PC-3 cells, read-out: IC50, prostate cancer cell line PC-3
[9] = U138-MG, U-138 MG cell line, read-out: IC50, Brain cancer cell line U-138 MG
[10] = T98G cell line, read-out: IC50, Brain cancer cell line T98G
[11] = U-251 MG cell line, read-out: IC50, Brain cancer cell line U-251 MG

Row | Structure (SMILES) | pIC50 [1, 4] | pIC50 [1, 5] | pIC50 [1, 6] | pIC50 [1, 7] | pIC50 [1, 8] | pIC50 (liver cancer cell lines) | pIC50 [2] | pIC50 (brain cancer cell lines; [9]) | pIC50 (brain cancer cell lines; [10]) | pIC50 (brain cancer cell lines; [11]) | pIC50 [3]
1 | CSc1c(C(C)=O)c(=O)c2c(Cl)ccc(Br)c2n1S(=O)(=O)c1ccc([N+](=O)[O-])cc1 [Compound 38, 3-acetyl-8-bromo-5-chloro-2-(methylthio)-1-((4-nitrophenyl)sulfonyl)quinolin-4(1H)-one] | < 5.70 | < 5.70 | < 5.70 | < 5.70 | < 5.70 | < 5.70 | < 5.00 | < 5.00 | < 5.00 | < 5.70 | < 5.00
2 | CC(=O)c1c(S(C)(=O)=O)n(C(=O)c2ccc(Br)cc2)c2c(Br)ccc(Cl)c2c1=O [Compound 21, 3-acetyl-8-bromo-1-(4-bromobenzoyl)-5-chloro-2-(methylsulfonyl)quinolin-4(1H)-one] | < 5.70 | < 5.70 | < 5.70 | < 5.70 | < 5.70 | < 5.70 | < 5.00 | < 5.00 | < 5.00 | < 5.70 | < 5.00
3 | CC(=O)c1c(S(C)(=O)=O)n(S(=O)(=O)c2ccc(C(C)(C)C)cc2)c2c(Br)ccc(Cl)c2c1=O [Compound 41, 3-acetyl-8-bromo-1-((4-(tert-butyl)phenyl)sulfonyl)-5-chloro-2-(methylsulfonyl)quinolin-4(1H)-one] | < 5.70 | < 5.70 | < 5.70 | < 5.70 | < 5.70 | < 5.70 | < 5.00 | < 5.00 | < 5.00 | < 5.70 | < 5.00
4 | CC(=O)c1c([S+]([O-])C(C)C)[nH]c2c(Br)ccc(Cl)c2c1=O (centres unmarked) [Compound 25, 3-acetyl-8-bromo-5-chloro-2-(isopropylsulfinyl)quinolin-4(1H)-one] | < 5.70 | < 5.70 | < 5.70 | < 5.70 | < 5.70 | < 5.70 | < 5.00 | < 5.00 | < 5.00 | < 5.70 | < 5.00
5 | CC(=O)c1c([S+]([O-])Cc2ccccc2)nc2c(Br)ccc(Cl)c2c1O (centres unmarked) [Compound 4] | 5.78 | 5.92 | 5.85 | < 5.70 | 5.82 | 5.95 | < 5.00 | 5.74 | < 5.00 | 5.91 | < 5.00
6 | CC(=O)c1c(SCc2cccc(C#N)c2)[nH]c2c(Br)ccc(Cl)c2c1=O [Compound 27, 3-(((3-acetyl-8-bromo-5-chloro-4-oxo-1,4-dihydroquinolin-2-yl)thio)methyl)benzonitrile] | < 5.70 | < 5.70 | < 5.70 | < 5.70 | < 5.70 | < 5.70 | < 5.00 | < 5.00 | < 5.00 | < 5.70 | < 5.00
7 | CC(=O)c1c([S+](C)[O-])[nH]c2c(Cl)ccc(Cl)c2c1=O (centres unmarked) [Compound 6, 3-acetyl-5,8-dichloro-2-(methylsulfinyl)quinolin-4(1H)-one] | 5.70 | 5.81 | 5.74 | < 5.70 | 5.77 | 5.86 | < 5.00 | < 5.70 | < 5.00 | < 5.70 | < 5.00
8 | CC(=O)c1c(SCc2ccc(F)c(Cl)c2)[nH]c2c(Br)ccc(Cl)c2c1=O [Compound 30, 3-acetyl-8-bromo-5-chloro-2-((3-chloro-4-fluorobenzyl)thio)quinolin-4(1H)-one] | < 5.70 | < 5.70 | < 5.70 | < 5.70 | < 5.70 | < 5.70 | < 5.00 | < 5.00 | < 5.00 | < 5.70 | < 5.00
9 | CC(=O)c1c([S+](C)[O-])n(C(=O)c2ccc(Br)cc2)c2c(Br)ccc(Cl)c2c1=O (centres unmarked) [Compound 9, 3-acetyl-8-bromo-1-(4-bromobenzoyl)-5-chloro-2-(methylsulfinyl)quinolin-4(1H)-one] | 5.80 | 5.87 | 5.80 | < 5.70 | 5.83 | 6.00 | < 5.00 | 5.90 | < 5.00 | < 5.70 | < 5.00
10 | CC(=O)c1c(Sc2ccc(Br)cc2)[nH]c2c(Br)ccc(Cl)c2c1=O [Compound 16, 3-acetyl-8-bromo-2-((4-bromophenyl)thio)-5-chloroquinolin-4(1H)-one] | < 5.70 | < 5.70 | < 5.70 | < 5.70 | < 5.70 | < 5.70 | < 5.00 | < 5.00 | < 5.00 | < 5.70 | < 5.00

Now from value to compound, other results behind:

Row | pIC50 [1, 4] | pIC50 [1, 5] | pIC50 [1, 6] | pIC50 [1, 7] | pIC50 [1, 8] | pIC50 (liver cancer cell lines) | pIC50 [2] | pIC50 (brain cancer cell lines; [9]) | pIC50 (brain cancer cell lines; [10]) | pIC50 (brain cancer cell lines; [11]) | Structure (SMILES) | pIC50 [3]
11 | < 5.70 | < 5.70 | < 5.70 | < 5.70 | < 5.70 | < 5.70 | < 5.00 | < 5.00 | < 5.00 | < 5.70 | COc1cccc2[nH]c(SCc3ccc(S(F)(F)(F)(F)F)cc3)c(C(C)=O)c(=O)c12 [Compound 92, 3-acetyl-5-methoxy-2-((4-(pentafluoro--sulfanyl)benzyl)thio)quinolin-4(1H)-one] | < 5.00
12 | < 5.70 | < 5.70 | < 5.70 | < 5.70 | – | < 5.70 | < 5.70 | < 5.70 | < 5.00 | < 5.70 | CC(=O)c1c([S+]([O-])Cc2ccc(NS(C)(=O)=O)cc2)[nH]c2c(Br)ccc(Cl)c2c1=O (centres unmarked) [Compound 103, N-(4-(((3-acetyl-8-bromo-5-chloro-4-oxo-1,4-dihydroquinolin-2-yl)sulfinyl)methyl)phenyl)methane-sulfonamide] | < 5.00
13 | 5.83 | 5.82 | 5.89 | < 5.70 | 5.77 | 5.97 | < 5.70 | 5.77 | < 5.00 | 5.95 | Cc1cc(C[S+]([O-])c2[nH]c3c(Cl)ccc(Cl)c3c(=O)c2C(=O)C2CC2)no1 (centres unmarked) [Compound 97, 5,8-dichloro-3-(cyclopropanecarbonyl)-2-(((5-methylisoxazol-3-yl)methyl)sulfinyl)quinolin-4(1H)-one] | < 5.00
14 | < 5.70 | < 5.70 | < 5.70 | < 5.70 | – | < 5.70 | < 5.00 | < 5.70 | < 5.00 | < 5.70 | CC(=O)c1c([S+]([O-])Cc2ccc(C(F)(F)F)o2)[nH]c2c(F)ccc(F)c2c1=O (centres unmarked) [Compound 81, 3-acetyl-5,8-difluoro-2-(((5-(trifluoromethyl)furan-2-yl)methyl)sulfinyl)quinolin-4(1H)-one] | < 5.00
15 | < 5.70 | 5.85 | 5.87 | < 5.70 | < 5.70 | < 5.70 | < 5.70 | < 5.70 | < 5.00 | < 5.70 | O=C(c1c([S+]([O-])Cc2ccc(SC(F)(F)F)cc2)[nH]c2c(Br)ccc(Cl)c2c1=O)C1CC1 (centres unmarked) [Compound 101, 8-bromo-5-chloro-3-(cyclopropanecarbonyl)-2-((4-((trifluoromethyl)thio)benzyl)sulfinyl)quinolin-4(1H)-one] | < 5.00
16 | < 5.70 | < 5.70 | < 5.70 | < 5.70 | < 5.70 | < 5.70 | < 5.00 | < 5.00 | < 5.00 | < 5.70 | CC(=O)c1c(SCC#N)[nH]c2c(Br)ccc(Cl)c2c1=O [Compound 66, 2-((3-acetyl-8-bromo-5-chloro-4-oxo-1,4-dihydroquinolin-2-yl)thio)acetonitrile] | < 5.00
17 | < 5.70 | < 5.70 | < 5.70 | < 5.70 | – | < 5.70 | < 5.00 | < 5.00 | < 5.00 | < 5.70 | O=C(c1ccccc1)c1c([S+]([O-])Cc2ccc(S(F)(F)(F)(F)F)cc2)[nH]c2c(F)ccc(F)c2c1=O (centres unmarked) [Compound 87, 3-benzoyl-5,8-difluoro-2-((4-(pentafluoro--sulfanyl)benzyl)sulfinyl)quinolin-4(1H)-one] | < 5.00
18 | < 5.70 | < 5.70 | < 5.70 | < 5.70 | – | < 5.70 | < 5.00 | < 5.00 | < 5.00 | < 5.70 | CC(=O)c1c([S+]([O-])Cc2ccc(S(F)(F)(F)(F)F)cc2)[nH]c2c(F)ccc(F)c2c1=O (centres unmarked) [Compound 80, 3-acetyl-5,8-difluoro-2-((4-(pentafluoro--sulfanyl)benzyl)sulfinyl)quinolin-4(1H)-one] | < 5.00
